Experimental data: the supplement of paper PMC10307832

Key:
Assay in all cases: relative viability (nuclei count vs DMSO), 5 days (fraction); higher = more cells survive
[1] = compound: CC1CC(=O)N(C2=CN=C(N=C2N1C3CCCC3)NC4=C(C=C(C=C4)C(=O)NC5CCN(CC5)C)OC)C [NPK76-II-72-1] + CS(=O)(=O)N1CCN(Cc2cc3nc(-c4cccc5[nH]ncc45)nc(N4CCOCC4)c3s2)CC1 [Pictilisib] (partner 1 µM)
Procedure, shortened: (§1)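 Relative viability was taken as the ratio of nuclei in treated wells to nuclei in vehicle wells. Lung cancer cell lines in 1536-well plates received compounds by pin tool one day after seeding, either one drug alone or a fixed anchor-drug dose plus five library-drug doses (not always all listed) in √10 steps. Nuclei were counted on 4× images after 5 days of treatment, and values are medians of duplicate plates.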

NPK76-II-72-1 + Olaparib = compound: CC1CC(=O)N(C2=CN=C(N=C2N1C3CCCC3)NC4=C(C=C(C=C4)C(=O)NC5CCN(CC5)C)OC)C [NPK76-II-72-1] + O=C(c1cc(Cc2n[nH]c(=O)c3ccccc23)ccc1F)N1CCN(C(=O)C2CC2)CC1 [Olaparib] (partner 8 µM)
Procedure, shortened: as §1

[2] = compound: CC1CC(=O)N(C2=CN=C(N=C2N1C3CCCC3)NC4=C(C=C(C=C4)C(=O)NC5CCN(CC5)C)OC)C [NPK76-II-72-1] + CC(C)C[C@H](NC(=O)[C@H](Cc1ccccc1)NC(=O)c1cnccn1)B(O)O [Bortezomib] (partner 0.002 µM)
Procedure, shortened: as §1

BI-2536 + Dasatinib = compound: CC[C@@H]1C(=O)N(C)c2cnc(Nc3ccc(C(=O)NC4CCN(C)CC4)cc3OC)nc2N1C1CCCC1 [BI-2536] + Cc1nc(Nc2ncc(C(=O)Nc3c(C)cccc3Cl)s2)cc(N2CCN(CCO)CC2)n1 [Dasatinib] (partner 0.075 µM)
Procedure, shortened: as §1

Row | Cell Line | relative viability ([1]; first compound 0.01 µM) | relative viability ([1]; first compound 0.03162 µM) | relative viability ([1]; first compound 0.1 µM) | relative viability ([1]; first compound 0.3162 µM) | relative viability ([1]; first compound 1 µM) | relative viability (NPK76-II-72-1 + Olaparib; first compound 0.01 µM) | relative viability (NPK76-II-72-1 + Olaparib; first compound 0.03162 µM) | relative viability (NPK76-II-72-1 + Olaparib; first compound 0.1 µM) | relative viability (NPK76-II-72-1 + Olaparib; first compound 0.3162 µM) | relative viability (NPK76-II-72-1 + Olaparib; first compound 1 µM) | relative viability ([2]; first compound 0.01 µM) | relative viability ([2]; first compound 0.03162 µM) | relative viability ([2]; first compound 0.1 µM) | relative viability ([2]; first compound 0.3162 µM) | relative viability ([2]; first compound 1 µM) | relative viability (BI-2536 + Dasatinib; first compound 0.01 µM) | relative viability (BI-2536 + Dasatinib; first compound 0.03162 µM) | relative viability (BI-2536 + Dasatinib; first compound 0.1 µM) | relative viability (BI-2536 + Dasatinib; first compound 0.3162 µM) | relative viability (BI-2536 + Dasatinib; first compound 1 µM)
1 | SW 1573 | 0.425 | 0.497 | 0.498 | 0.455 | 0.463 | 0.437 | 0.625 | 0.495 | 0.488 | 0.473 | 1.13 | 1.04 | 0.822 | 1.04 | 1.27 | 0.563 | 0.222 | 0.0892 | 0.0839 | 0.0938
2 | EPLC-272H | 0.31 | 0.31 | 0.32 | 0.296 | 0.381 | 0.831 | 0.825 | 0.782 | 0.732 | 0.765 | 0.984 | 0.916 | 0.773 | 0.829 | 0.975 | 0.327 | 0.357 | 0.0724 | 0.0766 | 0.0856
3 | PC-3 [JPC-3] | 0.779 | 0.772 | 0.561 | 0.667 | 0.743 | 1.12 |  | 1.09 | 1.09 | 1.2 | 0.83 | 0.897 | 0.581 | 0.778 | 0.81 | 1.02 | 0.925 | 0.879 | 0.266 | 0.188
4 | NCI-H650 | 0.804 | 0.88 | 0.71 |  | 1.21 | 0.391 | 0.316 | 0.397 | 0.354 | 0.489 | 0.862 | 0.678 | 0.729 |  | 1.02 | 0.44 | 0.511 | 0.3 | 0.158 | 0.0998
5 | NCI-H838 | 0.37 | 0.481 | 0.47 | 0.435 | 0.432 | 0.712 | 0.846 | 0.768 | 0.738 | 0.805 | 0.768 | 0.885 | 0.988 | 0.771 | 0.715 | 0.281 | 0.291 | 0.235 | 0.134 | 0.164
6 | COR-L 105 | 0.424 | 0.467 | 0.423 | 0.411 | 0.451 | 0.586 | 0.795 | 0.46 | 0.683 | 0.794 | 0.699 | 0.982 | 0.848 | 0.672 | 1.12 | 0.359 | 0.312 | 0.212 | 0.197 | 0.148
7 | NCI-H2405 | 0.485 | 0.467 | 0.479 | 0.453 | 0.452 | 0.861 | 0.888 | 0.908 | 0.858 | 0.88 | 1.01 | 0.99 | 0.921 | 0.753 | 1.11 | 0.19 | 0.214 | 0.178 | 0.102 | 0.177
8 | NCI-H661 | 0.416 | 0.422 | 0.422 |  | 0.508 | 0.697 | 0.705 | 0.778 | 0.666 | 0.83 | 0.912 | 0.793 | 0.688 | 0.647 | 0.854 | 0.851 | 0.307 |  |  | 0.367
9 | NCI-H1915 | 0.988 | 1.08 | 0.91 | 0.846 | 0.902 | 0.271 | 0.254 | 0.262 | 0.253 | 0.246 | 0.981 | 1.04 | 0.848 | 0.865 | 1.02 | 0.292 | 0.354 | 0.139 | 0.156 | 0.0656
10 | CAL-12T | 0.448 | 0.39 | 0.42 |  | 0.453 | 0.724 | 0.829 | 0.726 | 0.741 | 0.825 | 0.874 | 0.832 | 0.872 |  | 1.01 | 0.387 | 0.287 | 0.0978 | 0.121 | 0.0997
11 | LXF-289 | 0.791 | 0.819 | 0.796 | 0.772 | 0.776 | 0.966 | 1.07 | 1.05 | 1.04 | 1.07 | 1.02 | 1.06 | 0.955 | 1.04 | 1.02 | 0.274 | 0.235 | 0.0786 | 0.047 | 0.0368
12 | NCI-H460 | 0.238 | 0.297 | 0.367 | 0.34 | 0.365 | 0.441 | 0.457 | 0.514 | 0.426 | 0.455 | 1.02 | 1.26 | 1.11 | 1.01 | 1.18 | 0.483 | 0.635 | 0.368 | 0.0145 | 0.0151
13 | NCI-H2009 | 0.812 | 0.974 | 0.897 | 0.781 | 0.886 | 0.652 | 0.787 | 0.675 | 0.686 | 0.64 | 1.01 | 1.1 | 1.09 | 0.842 | 1.24 | 0.256 | 0.248 | 0.169 | 0.137 | 0.0971
14 | 201T | 0.642 | 0.618 | 0.66 | 0.7 | 0.677 | 0.792 | 0.826 | 0.836 | 0.851 | 0.839 | 1.07 | 1.14 | 1.08 | 1.17 | 1.1 | 0.579 | 0.57 | 0.547 | 0.402 | 0.285
15 | NCI-H23 | 0.389 | 0.48 |  | 0.503 | 0.534 | 0.228 | 0.29 | 0.316 | 0.255 | 0.354 | 0.856 | 1.22 |  | 1.06 | 1.12 | 0.803 | 1.02 | 0.285 | 0.126 | 0.107
16 | LOU-NH91 | 0.501 | 0.507 | 0.46 | 0.502 | 0.597 | 0.906 | 0.926 | 0.893 | 0.785 | 0.991 | 0.488 | 0.483 | 0.463 | 0.432 | 0.35 | 0.599 | 0.539 | 0.52 | 0.289 | 0.256
17 | NCI-H2085 | 0.494 | 0.385 | 0.494 | 0.398 | 0.507 | 0.718 | 0.77 | 0.783 | 0.726 | 0.83 | 1.05 | 1.01 | 0.977 | 0.953 | 1.02 | 0.26 | 0.232 | 0.232 | 0.157 | 0.19
18 | COR-L23 | 0.742 | 0.895 | 0.831 | 0.763 | 0.869 | 0.321 | 0.38 | 0.34 | 0.335 | 0.396 | 0.942 | 1 | 0.889 | 0.961 | 0.99 | 0.459 | 0.491 | 0.117 | 0.107 | 0.0593
19 | BEN | 0.526 | 0.551 | 0.526 | 0.606 | 0.55 | 1.01 | 1.14 | 1.04 | 1.03 | 1 | 0.773 | 0.659 | 0.763 | 0.466 | 0.875 | 0.34 | 0.367 | 0.248 | 0.184 | 0.199
20 | ChaGo-K-1 | 0.736 | 0.642 | 0.685 | 0.686 | 0.367 | 0.417 | 0.401 | 0.392 | 0.418 | 0.448 | 0.988 | 0.945 | 0.994 | 0.744 | 1.01 | 0.594 | 0.667 | 0.446 | 0.194 | 0.197
21 | NCI-H322M | 0.45 | 0.573 | 0.513 | 0.576 | 0.513 | 0.582 | 0.828 | 0.623 | 0.878 | 0.791 | 1.17 | 1.3 | 1.24 | 1.39 | 1.36 | 0.286 | 0.248 | 0.259 | 0.361 | 0.288
22 | NCI-H520 | 0.234 | 0.267 | 0.374 | 0.267 | 0.291 | 0.294 | 0.351 | 0.268 | 0.385 | 0.343 | 0.731 | 0.766 | 0.385 | 0.514 | 0.544 | 0.164 | 0.204 | 0.194 | 0.153 | 0.13
23 | ABC-1 | 0.638 | 0.8 | 0.483 | 0.678 | 0.743 | 0.606 | 0.537 | 0.764 | 0.803 | 1.34 | 0.272 | 0.306 | 0.299 | 0.254 | 0.358 | 0.519 | 0.634 | 0.211 | 0.31 | 0.231
24 | NCI-H1666 | 0.305 | 0.55 | 0.35 | 0.381 | 0.469 | 0.74 | 0.754 | 0.735 | 0.84 | 0.758 | 0.9 | 0.801 | 0.73 | 0.647 | 1.03 | 0.765 | 0.653 | 0.716 | 0.313 | 0.267
25 | NCI-H1993 | 0.811 | 0.804 | 0.779 | 0.88 | 0.759 | 0.96 | 1.05 | 1.24 | 1.07 | 1.29 | 1 | 1.09 | 0.775 | 0.729 | 0.873 | 0.688 | 0.577 | 0.51 | 0.514 | 0.485
26 | NCI-H1975 | 0.267 | 0.278 | 0.28 | 0.279 | 0.277 | 0.769 | 0.841 | 0.716 | 0.811 | 0.75 | 0.34 | 0.37 | 0.292 | 0.41 | 0.402 | 0.374 | 0.334 | 0.194 | 0.0936 | 0.0979
